Experimental findings from ChEMBL document CHEMBL1201862, “PubChem BioAssay data set” (2004) are described below.

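How tested: cells in 96-well plates exposed to compound for 48 hours at five concentrations. GI50: concentration for 50% inhibition of growth.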 Activity calls are given as the source filed them. Cut-off read from the data, not from the text of the source: active = GI50 up to about 1.1 µM and inactive = higher.

What all share (assay): NCI anticancer screen, dose series, 48 h
Assay [1] relates to 786-0.
Assay [2] has as its system A549.
Assay [3] concerns ACHN.
The subject of assay [4] is BT-549.
Assay [5] has as its system COLO 205.
Assay [6] concerns DMS-273.
Assay [7] concerns DU-145.
The subject of assay [8] is HCT-116.
Assay [9] deals with KM12.
Assay [10] concerns MDA-MB-435.
Assay [11] concerns Malme-3M.
The test system of assay [12] is NCI-H226.
The test system of assay [13] is NCI-H23.
The test system of assay [14] is OVCAR-3.
Assay [15] relates to RPMI-8226.
In assay [16] the test system is SK-MEL-28.
Assay [17] concerns SNB-78.
Assay [18] has as its system T47D.
Assay [19] concerns TK-10.
Assay [20] has as its system UO-31.

For the molecule `CS(=O)(=O)OCCN(CCOS(C)(=O)=O)c1ccc(C=O)cc1`, the GI50 in assay [1] was 0.365 µM (active); in assay [2], 2.89 µM (inactive); in [3] it was 0.346 µM (active); in assay [4], 13 µM (inactive); in assay [5], 1.81 µM (inactive); in assay [6] it was 0.314 µM (active). Also, the GI50 in assay [7] is 0.505 µM (active); in assay [8] it was 31.4 µM (inactive); in assay [9], 10.4 µM (inactive); in assay [10] it was 10.3 µM (inactive); in [11], 8.77 µM (inactive); in assay [12] it was 1.84 µM (inactive). For the same molecule, the GI50 in assay [13] was 1.63 µM (inactive); in assay [14] it was 5.12 µM (inactive); in assay [15], 8.63 µM (inactive); in assay [16], 17.1 µM (inactive); in assay [17] it was 27.2 µM (inactive); in assay [18], 5.92 µM (inactive). The GI50 is 2.94 µM (inactive) in assay [19] and 1.11 µM (active) in [20].

Consider `CCOC(=O)C(=Cc1ccc(Oc2ccccc2)cc1)C(=O)OCC`, for which the GI50 is 1.85 µM (inactive) in assay [1]; 8.45 µM (inactive) in assay [2]; 6.3 µM (inactive) in assay [3]; 1.84 µM (inactive) in assay [4]; 4.06 µM (inactive) in assay [5]; 1.69 µM (inactive) in assay [6]. Further, the GI50 was 11.6 µM (inactive) in assay [7]; 2.31 µM (inactive) in assay [8]; 5.98 µM (inactive) in [9]; 2.58 µM (inactive) in assay [10]; 2.56 µM (inactive) in assay [11]; 3.17 µM (inactive) in assay [12]. Also, the GI50 in assay [13] is 2.58 µM (inactive); in assay [14], 6.38 µM (inactive); in [15] it was 2.79 µM (inactive); in [16] it was 3.56 µM (inactive); in assay [17] it was 5.7 µM (inactive); in assay [18], 5.85 µM (inactive). Moreover, the GI50 is 7.74 µM (inactive) in [19] and 4.35 µM (inactive) in [20].

Consider `O=C(CC(=O)c1ccccc1NC1=Cc2ccccc2C(=O)C1=O)C(=O)NC1=C(Cl)C(=O)c2ccccc2C1=O`, for which the GI50 in assay [1] is 2.48 µM (inactive); in assay [2], 4.55 µM (inactive); in [3], 3.56 µM (inactive); in assay [4] it was 3.76 µM (inactive); in assay [5], 14.8 µM (inactive); in assay [6], 2.34 µM (inactive). Moreover, the GI50 in [7] was 5.71 µM (inactive); in [8], 2.31 µM (inactive); in assay [9] it was 4.28 µM (inactive); in assay [10], 1.85 µM (inactive); in [11], 1.22 µM (inactive); in [12] it was 7.52 µM (inactive). In addition, the GI50 in assay [13] is 1.57 µM (inactive); in [14] it was 1.51 µM (inactive); in assay [15], 1.56 µM (inactive); in [16], 1.89 µM (inactive); in assay [17], 2.16 µM (inactive); in [18], 10.9 µM (inactive). Besides, the GI50 was 22.3 µM (inactive) in assay [19] and 6.89 µM (inactive) in [20].
